From patent US20220151993A1, “TREATMENT OF ANXIETY AND DEPRESSION” (NEW YORK UNIVERSITY, priority 2020, published 2022)

What was measured:
Type in all cases: in vivo, human
[1] = tested on: patients with cancer-related psychiatric and existential distress; experiment: Beck Depression Inventory-II (BDI-II), long-term follow-up; conditions: single 0.3 mg/kg dose with psychotherapy, baseline 14.19
Method: (§1) The present example assesses the long-term effects of a single dose of psilocybin (0.3 mg/kg) in conjunction with psychotherapy in patients with cancer-related psychiatric and existential distress.
(§2) 29 participants were randomly assigned to one of two groups: psilocybin (0.3 mg/kg) on the first medication session followed by niacin (250 mg) on the second session (i.e. psilocybin-first group), or niacin (250 mg) on the first medication session followed by psilocybin (0.3 mg/kg) on the second session (i.e. niacin-first group). Psilocybin and niacin were administered in identically appearing gelatin capsules.
(§3) Participants received three 2-hour preparatory psychotherapy sessions in order to review the purpose and intention of participation in the study, treatment goals, and structure of the treatment sessions. Medications were administered in 8-hour treatment sessions which included a discussion of the participant's subjective experience with the treatment team to consolidate the memory of the experience and to begin the process of post-integrative psychotherapy. Participants also received three 2-hour post-medication integration sessions (repeated after the second dosing session) to further consolidate the memory of the experience and to continue the process of psychological integration. All psychotherapy treatment sessions were delivered by a dyadic therapy team trained in a blend of psychotherapies with an evidence base to support their use in cancer patients (drawing upon principles of palliative care therapy, existential psychotherapy, cognitive-behavioural therapy, psychoanalysis therapy, and transpersonal psychology) and were taught about the safety and clinical pharmacology of psilocybin. […]
Primary outcomes (anxiety and depression) were measured according to the following methods: • Hospital Anxiety and Depression Scale (HADS) (Zigmond and Snaith, 1983)—this is widely used in hospital settings to screen for the severity of anxiety and depression. […] Subscale scores can be calculated for depression (HADS-D) and anxiety (HADS-A). […]

[2] = tested on: patients with cancer-related psychiatric and existential distress; experiment: Secondary questionnaire domains (social relationships, environmental, physical, psychological health), long-term follow-up; conditions: single 0.3 mg/kg dose with psychotherapy; for Psychological health: baseline 13.58; for Social relationships: baseline 13.91; for Physical health: baseline 15.00; for Environmental health: baseline 15.50
Method: as §1, §2
(§4) Participants received three 2-hour preparatory psychotherapy sessions in order to review the purpose and intention of participation in the study, treatment goals, and structure of the treatment sessions. Medications were administered in 8-hour treatment sessions which included a discussion of the participant's subjective experience with the treatment team to consolidate the memory of the experience and to begin the process of post-integrative psychotherapy. Participants also received three 2-hour post-medication integration sessions (repeated after the second dosing session) to further consolidate the memory of the experience and to continue the process of psychological integration. All psychotherapy treatment sessions were delivered by a dyadic therapy team trained in a blend of psychotherapies with an evidence base to support their use in cancer patients (drawing upon principles of palliative care therapy, existential psychotherapy, cognitive-behavioural therapy, psychoanalysis therapy, and transpersonal psychology) and were taught about the safety and clinical pharmacology of psilocybin. Each therapy dyad underwent six confidential one-to-one sessions to build their alliance and exchange ideas about psychedelic therapy. The trial employed a crossover design at seven weeks following the first drug administration, with an outcome assessment at 6.5 months (26 weeks) following the second drug administration (i.e. after the crossover).
(§5) Two long-term follow ups (LTFUs) were carried out to assess the continued effect of psilocybin. Of the original 29 participants, all 16 participants who were not deceased at the time of LTFU were contacted (the remaining 13 participants were deceased). Of the 16 participants who were contacted, 15 agreed to participate in the LTFU and completed measures through a secure online portal. One participant died (from cancer-related complications) after completing the first LTFU and prior to the second LTFU, leaving us with 14 participants at the second LTFU. The first and second LTFUs occurred on average 3.2 years (range 2.3-4.5 years) and 4.5 years (range 3.5-5.5 years) following the participants' psilocybin dosing date, respectively.
Regarding all analyses for both the primary and secondary outcome assessments, both the psilocybin-first and niacin-first dose sequence groups were collapsed and combined into one group. Reasons for this decision included the crossover design, which prevented valid between-group comparisons subsequent to the crossover, and a need to increase power given the modest sample size.
The long-terms effects of psilocybin on variables of interest were evaluated using four repeated measures regressions, estimated within the mixed effect repeated measurement (MMRM) model. Planned within-subject t-tests (Tukey's post-hoc) were conducted comparing scores at baseline to the following time points for primary and secondary outcomes: 6.5 months after the second medication session, and the first and second LTFU points. Planned within subject t-tests were also conducted comparing scores at parent study endpoint (6.5 months) to the two LTFU points.

[3] = tested on: patients with cancer-related psychiatric and existential distress; experiment: Demoralization Scale (DS), long-term follow-up; conditions: single 0.3 mg/kg dose with psychotherapy, baseline 31.88, p < 0.001 vs baseline
Method: as §1, §2, §3
Cancer-related existential distress (demoralization, hopelessness, attitudes and effects associated with disease progression and death) was assessed using the following methods: • The Death Anxiety Scale (DAS) (Templer, 1970)—a 15-item measure that has been used most frequently to assess death anxiety. Items are scored “true” and “false” and then scored as one and zero, respectively. […]

[4] = tested on: patients with cancer-related psychiatric and existential distress; experiment: Existential distress measures (hopelessness, demoralization, death anxiety) combined: effect sizes
Method: as §1, §2, §4, §5
Cancer-related existential distress (demoralization, hopelessness, attitudes and effects associated with disease progression and death) was assessed using the following methods: • The Death Anxiety Scale (DAS) (Templer, 1970)—a 15-item measure that has been used most frequently to assess death anxiety. Items are scored “true” and “false” and then scored as one and zero, respectively. Total scores range between 0-15. Higher scores represent increased severity of death anxiety. Scores below eight are considered normative levels of death anxiety. Templer (1970) reported adequate test-retest reliability (r=0.83) and validity. • The Hopelessness Assessment in Illness (HAI) (Rosenfeld et al., 2011)—an eight-item instrument developed for use in patients with advanced cancer. Total scores range from 0-16. Higher scores indicate higher levels of hopelessness. Data have not been published regarding recommended clinical cut-off scores for this measure. […]

[5] = tested on: patients with cancer-related psychiatric and existential distress; experiment: Primary outcome measures (anxiety and depression) combined: effect sizes, clinical response and remission rates
Method: as §1, §2, §4, §5
Primary outcomes (anxiety and depression) were measured according to the following methods: • Hospital Anxiety and Depression Scale (HADS) (Zigmond and Snaith, 1983)—this is widely used in hospital settings to screen for the severity of anxiety and depression. It contains 14 questions rated on a four-point scale (total score (HAD-T) ranges from […]). Subscale scores can be calculated for depression (HADS-D) and anxiety (HADS-A). […] The HADS has shown good reliability (Cronbach's a ranging from 0.80-0.93) and has been well validated (Herrmann, 1997). • Beck Depression Inventory-II (BDI-II) (Beck et al., 1988)—a widely used self-report screening measure for depression. The BDI-II consists of 21 questions about depressive symptoms experienced over the past two weeks rated on a […] scale (total score ranges from 0-63). Scores above 12 indicate possible clinical depression. This measure has shown good reliability (internal consistency of 0.90) and factorial validity (Storch et al. 2004). • Spielberger State-Trait Anxiety Inventory (STAI) (Spielberger, 1983)—a well-known measure of anxiety consisting of scales for state (STAI-S) and trait-level anxiety (STAI-T). […]

[6] = mean score at 3.2 years, p < 0.01 vs baseline
[7] = mean score at 6.5-8 months, p < 0.001 vs baseline
[8] = mean score at 6.5-8 months, p < 0.05 vs baseline
[9] = second LTFU point (mean 4.5 years)

CN(C)CCc1c[nH]c2cccc(OP(=O)(O)O)c12 [psilocybin, [3-(2-dimethylaminoethyl)-1H-indol-4-yl] dihydrogen phosphate]
Beck Depression [1, 6]: 7.75
Beck Depression ([1]; mean score at 4.5 years, p < 0.001 vs baseline): 5.45
Beck Depression [1, 7]: 5.09
Psychological health [2, 6]: 15.48
Social relationships ([2]; mean score at 3.2 years): 15.54
Physical health ([2]; mean score at 3.2 years): 16.33
Environmental health ([2]; mean score at 3.2 years, p < 0.05 vs baseline): 16.72
Psychological health ([2]; mean score at 4.5 years): 14.80
Social relationships ([2]; mean score at 4.5 years): 14.67
Physical health ([2]; mean score at 4.5 years): 13.89
Environmental health ([2]; mean score at 4.5 years, p < 0.05 vs baseline): 17.00
Psychological health [2, 7]: 15.70
Social relationships ([2]; mean score at 6.5-8 months): 15.27
Physical health [2, 8]: 16.35
Environmental health [2, 8]: 16.54
Demoralization ([3]; mean score at 3.2 years): 13.29
Demoralization ([3]; mean score at 4.5 years): 14.32
Demoralization ([3]; mean score at 6.5-8 months): 16.84
mean Cohen's d, reductions in hopelessness, demoralization and death anxiety since baseline ([4]; 6.5-month point): 1.39
range of Cohen's d, hopelessness, demoralization and death anxiety ([4]; 6.5-month point): 0.88-2.00
mean Cohen's d, reductions in hopelessness, demoralization and death anxiety since baseline ([4]; first LTFU (mean 3.2 years)): 1.39
range of Cohen's d, hopelessness, demoralization and death anxiety ([4]; first LTFU (mean 3.2 years)): 0.80-1.77
mean Cohen's d, reductions in hopelessness, demoralization and death anxiety since baseline ([4]; second LTFU (mean 4.5 years)): 1.60
range of Cohen's d, hopelessness, demoralization and death anxiety ([4]; second LTFU (mean 4.5 years)): 1.00-2.00
participants meeting criteria for clinical antidepressant or anxiolytic response and remission ([5]; 4.5 year time point): 60-80%
mean Cohen's d, reductions in symptoms since baseline on primary measures (anxiety and depression) ([5]; 6.5-month point): 1.90
range of Cohen's d, primary measures (anxiety and depression) ([5]; 6.5-month point): 1.27-2.67
participants meeting criteria for clinical antidepressant or anxiolytic response and remission ([5]; 6.5 months after psilocybin administration): 60-80%
mean Cohen's d, reductions in symptoms since baseline on primary measures (anxiety and depression) ([5]; first LTFU (mean 3.2 years)): 1.30
range of Cohen's d, primary measures (anxiety and depression) ([5]; first LTFU (mean 3.2 years)): 0.93-1.97
depression symptom remission rates ([5]; second LTFU (4.5 years, n=14), 50% or greater reduction plus HADS-D≤7 or BDI≤12): 50-79%
percentages of clinical responses for depression on the HADS-D and BDI ([5]; second LTFU (4.5 years, n=14), 50% or greater reduction relative to baseline): 57-79%
mean Cohen's d, reductions in symptoms since baseline on primary measures (anxiety and depression) [5, 9]: 1.41
range of Cohen's d, primary measures (anxiety and depression) [5, 9]: 0.86-1.89
